The results in this text go back to patent publication US12721808B2, “Orris root extracts, compositions, and methods for skin applications” (ACCESS BUSINESS GROUP INTERNATIONAL LLC, priority 2021, dated 2026).

This experiment concerns B16-F10 (B16) cells. Briefly: Bioassay Directed Fractionation (BDF) with B16 cell culture pigmentation assay. The format is cell-based. As to conditions: LC fraction (20 sec) of Orris root extract corresponding to the compound's peak, FIG. 2. As for the experimental part: Sample extracts were prepared at 50 mg/ml in DMSO and sonicated for 20 min. Samples solutions were then filtered through 0.2 μm Whatman Anotop 25 syringe filter into autosampler vials for assay. The LC-MS system was modified to incorporate a 10:1 splitter that was positioned between the UV detector and MS ion source. The majority of LC effluent was directed to a Waters Fraction Collector II fitted with a 96-deep well plate into which fractions were collected by time at intervals of 20 sec/well for the first 32 minutes of each run (96 wells/run). The LC column was a XBridge Shield RP18, 5 μm, 4.6×250 mm maintained at ambient temperature (22° C.). The solvent program was ramped linearly as follows: 95% A/5% B at time 0, to 100% B at 30 min, hold at 100% B to 32 min, then to 95% A/5% B at 32.1 min and hold 95% A/5% B until 36 min. The flow rate was 0.8 mL/min and an injection volume of […] was used (0.5 mg solids/injection). Effluent from four consecutive LC runs was collected per plate (2 mg solids/plate). Plates were then dried under nitrogen at 40° C. to remove acetonitrile and residual water was removed by freeze drying. Plates were stored at −80° C. until to assayed for pigmentation response.
The results of the BDF are shown in FIG. 2, with LC-UV chromatogram A at 260 nm showing phytochemical peak profile, and time-aligned bar graph B (with each bar representing a fraction from the LC effluent collected for 20 seconds), showing pigmentation responses using B16 cell culture assay.
Primary cells and cell lines were grown in a humidified atmosphere of 5% CO2 at 37° C. […]
B16 cells (6000 cells/well) were pre-cultured in 96-well plates in DMEM medium supplemented with 10% FBS and 1% P/S for 24 hours. […] The absorbance at 405 nm was measured, and MTT (3-(4,5-dimethylthiazol-2-yl)-2,5-diphenyltetrazolium bromide) assay was performed to examine the viability of cells. […]
With `C=C1CC[C@H](C)C(C)(C)[C@@H]1/C=C/C(C)=C/CC[C@@]1(CO)[C@H](CCCO)/C(=C(/C)C=O)CC[C@]1(C)O` [iriflorental, Iriflorental], the pigmentation response entry was “reduced pigmentation”.
The result for `COc1c2c(cc3occ(-c4ccc(O[C@@H]5O[C@H](CO)[C@@H](O)[C@H](O)[C@H]5O)cc4)c(=O)c13)OCO2` [germanaism B, Germanaism B] reads “Increased pigmentation”.
For the compound `CC1=CC[C@H](C)C(C)(C)[C@@H]1/C=C/C(C)=C/CC[C@@]1(CO)[C@H](CCCO)/C(=C(/C)C=O)CC[C@]1(C)O` [iripallidal, Iripallidal], the pigmentation response entry is given as “reduced pigmentation”.
